SMILES | melting point [°C]
O=C=Nc1cccc(-c2nc3ccccc3c(=O)o2)c1 | 115 to 121
O=C(O)c1c(Cl)ccc(S(=O)(=O)N2CCCCC2)c1Cl | 142 to 145
CCc1c(CCN2CCC(c3nsc4cc(F)ccc34)CC2)sc2c1CCN(C(C)=O)C2 | 156 to 160
COC(=O)c1ccc(Cl)c(CSC)c1SC | 47.1
CCOc1ccc2cc(-c3nn(C(C)c4oc5ccccc5c(=O)c4-c4cccc(F)c4)c4ncnc(N)c34)ccc2c1 (stereo not drawn) | 286 to 290
Nc1ccc2c(c1)ncn2-c1ccccc1O | 202 to 203
O=C(O)[C@@H]1O[C@@H](c2ccccc2)N(NS(=O)(=O)c2ccc([N+](=O)[O-])cc2)[C@H]1c1ccccc1 | 61 to 65
N#Cc1cccc(C=Nc2ccc(F)cc2)c1 | 101
CCCCCCOc1ccc(-c2ncc(C#N)c(Cl)n2)cc1 | 133
O=S1(=O)N=CN(CCF)c2ccc(Cl)cc21 | 211 to 218
N#Cc1ncc(Sc2ccccc2)nc1C#N | 109 to 112
C=C1C(O)CC(OC(C)=O)C2(C)C1CC1(C(C)(C)O)CC(O)C(C)=C1C(OC(=O)c1ccccc1)C2OC(C)=O (stereo not drawn) | 200 to 201
CC(C)(C)c1ccc(N2CCNCC2)cc1 | 48 to 52
Cc1ccc2c(c1)oc1c(C(=O)NC34CC5CC(CC(C5)C3)C4)nn(-c3ccc(Cl)cc3Cl)c12 | 210 to 212
CCCCNc1ccc(OC)c(Cl)c1Cl | 47 to 49
CC(C)[C@@H](C(N)=O)C(=O)O | 174
CCOC(=O)c1nc2scc(CN=[N+]=[N-])c2c(=O)[nH]1 | 192
Cc1c(Nc2c(C#N)cnc3scc(C)c23)ccc2[nH]ccc12 | 261
COc1ccc(CCNC(=O)Nc2ccccc2CCc2cc(C(C)(C)C)c(O)c(C(C)(C)C)c2)cc1OC | 158 to 160
Cc1ccc(-c2nc3ccc(CN4CCN(C)CC4)cc3[nH]2)cc1C#Cc1ccc(NC2CC2)nn1 | 145 to 146
Cc1c(NC(=O)c2ccc(-c3ccc(F)c(F)c3)cc2)ccc2cc(CN3CCCC3)cnc12 | 199 to 201
COc1ccccc1NC(=O)c1sccc1S(=O)(=O)Nc1onc(C)c1Br | 74 to 80
N#Cc1cccc(-c2ccc(O)cc2)c1 | 135 to 141
Cc1n[nH]c2cc(-c3nn(C(C)c4oc5ccc(F)cc5c(=O)c4-c4ccccc4)c4ncnc(N)c34)ccc12 (stereo not drawn) | 253 to 255
COc1cc(C#N)ccc1C(=O)Nc1cc(Cl)c(Cl)cc1N | > 250

SMILES | melting point [°C]
O=C(O)COc1cccc(CCn2ncc(-c3ccccc3)c2-c2ccccc2)c1 | 133 to 138
CC1(C)[C@H](C=C(Cl)C(F)(F)F)[C@@H]1C(=O)NCc1cccc2c1CCCc1ccccc1-2 (relative stereo) | 65 to 70
Cc1cc(C)c(Nc2nc(C)ncc2S(=O)(=O)c2ccc(-c3ccccn3)cc2)c(C)c1 | 201 to 203
CC(C)(C)OC(=O)C=Cc1cc(Br)cc(Cc2cccnc2)c1 | 97 to 99
N#Cc1cccc(C(=O)NC2CCCNC(=O)C2)c1 (stereo not drawn) | 221 to 222
COC(=O)c1ccc(S(=O)(=O)Cc2c(O[C@H](Cn3ccnc3)c3ccccc3)ccc3c2CCCC3=O)cc1 | 105
CCOC(=O)c1c(C)nc(S)c(N)c1NCCCN(C)C | 110 to 112
CC(C)(NC(=O)CCNC(=O)OCc1ccccc1)c1ccccc1 | 96 to 97
CC(=O)n1ncc2c(OCc3ccccc3)cc(C)cc21 | 91 to 93
CCOC(=O)c1nc2ccccc2n(CCO)c1=O | 137 to 138
CC1(COc2c(-c3ccc(S(C)(=O)=O)cc3)cnn(CC(F)(F)F)c2=O)CC1 | 98 to 99
C[C@H](NC(=O)OCc1ccccc1)C(=O)c1ccc(OCc2ccccc2)cc1 | 89 to 91
CCCc1ccc(OCc2ccc(OCc3nc(-c4ccccc4)oc3C)cc2)cc1OCC(=O)O | 162 to 163
COc1cc2nc(NCCNCC(O)COc3ccccc3)nc(N)c2cc1OC (stereo not drawn) | 122 to 124
CNC1=CC(=O)N(C)C1 | 132 to 134
O=Cc1ccc(-c2c(-c3nn[nH]n3)[nH]c3ccccc23)cc1 | 210 to 212
COc1cc(N)cnc1Cl | 93 to 94
Cc1sc2cc(CC(=O)O)ccc2c1Br | 150 to 152
COc1ccc(CSc2nnc(-c3ccnc(NC(=O)CCc4ccccc4)c3)o2)cc1C(F)(F)F | 180 to 181
CC(C)(C)OC(=O)N1CC(CCl)c2ccc([N+](=O)[O-])cc21 (stereo not drawn) | 111 to 112
CN1C(=O)SC(=C(CO)c2cccc3ccccc23)C1=O | 112 to 113
CN1CCC(=C2c3ccccc3C=Cc3ccc(C(=O)OCn4ccnc4)cc32)CC1 | 118 to 121
CS(=O)(=O)c1ccc(C(CC2CCCC2)C(=O)Nc2ccccn2)cc1[N+](=O)[O-] (stereo not drawn) | 92 to 95
Brc1cccc(OCc2ccc3ccccc3c2)c1 | 109 to 112
CN(C(=O)OC(C)(C)C)c1cc(Oc2ccccc2N2CCCCC2)ccc1N | 108 to 110

SMILES | melting point [°C]
COc1ccc(CN2CCC3(CCc4c3n(C)c3ccccc43)CC2)cc1 | 39 to 40
CCC(C)c1ccc(-n2c(-c3cc(C)c(OCCO)c(C)c3)nc3ccc(F)cc3c2=O)cc1 (stereo not drawn) | 70 to 72
Cc1ccc2c(=O)nc(-c3cc(S(C)(=O)=O)cc(CCC(=O)OC(C)(C)C)n3)sc2c1 | 178
COc1ccc(C(C=NO)C(C)C)cc1OC (stereo not drawn) | 89
ClC(Cl)=C1OC(C(Cl)(Cl)Cl)Oc2ccc(-c3nnn[nH]3)cc21 (stereo not drawn) | 222
Cc1ccc2c(c1)[nH]c(=O)n2CCCN1CCC2(CC1)C(=O)NCN2c1ccccc1 | 256
CCc1cnc2c(NC(=O)c3c(Cl)cccc3Cl)cccc2c1CC(=O)OC | 167 to 168
Cc1nc2nccc(-c3cccc(C(F)(F)F)c3)n2n1 | 153 to 154
CCCS(=S)c1cccc(OS(C)(=O)=O)n1 (stereo not drawn) | 51 to 53
CCOC(=O)c1ccn2c(C(=O)c3cccc(O)c3)c(-c3ccccc3)cc2c1 | 193 to 195
CCN(CC)C(=O)c1ccc2ccccc2c1-c1ccc2ccccc2c1 | 159 to 161
CCOP(=O)(OCC)c1ccc2c(c1)[C@@H](n1ccccc1=O)[C@H](O)C(C)(C)O2 (relative stereo) | 130
Cc1cc2c(cc1C)C(=O)C(CC(=O)O)CC2 (stereo not drawn) | 193 to 194
CN1C(=O)C(C2=COc3cc4ccccc4cc3O2)=C(c2cn(C(=O)OC(C)(C)C)c3ccccc23)C1=O | 158
COc1cc(N)c(Cl)cc1C(=O)NCC1CCN(CCCS(=O)(=O)Cc2ccccc2)CC1 | 166 to 168
CCOC(=O)c1ccc(OCc2ccc3ccccc3c2)c(OC)c1 | 86 to 87
CCCCCCCCCCCCc1cc2cc(C(=O)OCC)ccc2[nH]1 | 77 to 79
OC1c2cc(OCc3ccc4ccccc4n3)ccc2OCCC1Oc1ccccc1 (stereo not drawn) | 128 to 129
Nc1cc(Oc2ccc3c(C(=O)Nc4ccc(F)c(C(F)(F)F)c4)nccc3c2)ncn1 | 219 to 222
COC(=O)c1ccc2c(c1)Sc1ccc(C(C)N(O)C(N)=O)cc1CC2 (stereo not drawn) | 167 to 169
Clc1cccc2c(CN3CC=C(/C=C/c4ccccc4)CC3)n[nH]c12 | 223 to 224
Cc1cc(C(=O)N2C(C)CCCC2C)ccc1[N+](=O)[O-] (stereo not drawn) | 99.7 to 100
CCCCC#CCC#CCC#CCCCCCCC(=O)O | 48.5 to 49.5
CN(C(=O)C(C)(C)NC(=O)OCc1ccccc1)c1ccc([N+](=O)[O-])cc1C(=O)c1ccccc1F | 168 to 169
c1ccc(-c2ccc(-c3cn4ccc5ccccc5c4n3)cc2)cc1 | 221 to 222

SMILES | melting point [°C]
CCn1nc(C#Cc2ccccc2)ccc1=O | 74 to 75
Cc1ccc(I)c(I)c1C | 175 to 178
O=C1CCC(N2C(=O)c3ccc(CNC(=O)Nc4ccccc4)cc3C2=O)C(=O)N1 (stereo not drawn) | 288 to 290
Cc1oc(-c2ccccc2)nc1CCOc1ccc(OC(C)(C)C(=O)O)cc1 | 129 to 130
Cc1sc(C(N)=O)c2c1-c1nn(Cc3ccccc3)cc1CC2 | 182 to 183
ClCC1COC(Cc2ccc(Cl)cc2)(c2ccccc2)O1 (stereo not drawn) | 65
COC(=O)N[C@H]1Cc2ccccc2C1=O | 157 to 159
CC(=O)c1cnc(O)c(Cl)c1 | 188 to 189
O=C(O)c1ncsc1-c1ccccc1 | 189 to 190
Cn1ncc2c(c1=O)S(=O)CCNC2Cc1ccccc1 (stereo not drawn) | 162 to 163
CCc1ccc2c(c1)C=Cc1sc(C)nc1C2c1cn(Cc2cccc(C(=O)O)c2)c(=O)[nH]c1=O (stereo not drawn) | 159 to 161
O=C(c1ccccc1)c1nc2cnc3ccc(F)cc3c2[nH]1 | 255 to 256
CCCNC(=O)c1cc2cc(OCCNC[C@H](O)COc3ccccc3)ccc2o1 | 127 to 128
CCN(CC)Cc1cc(C2(c3cccc(-c4cccnc4F)c3)N=C(N)N(C)C2=O)cn1CCF (stereo not drawn) | 121 to 140
Cc1nn(-c2ccc3cc(-c4ccc(C(=O)Cl)cc4)oc3c2)nc1-c1ccccc1 | 275
Cc1nc(-n2ccccc2=O)sc1C(=O)NCc1cccnc1 | 218 to 220
CCOc1ccc2c(c1)n(C1CCCCC1)c(=O)n2S(=O)(=O)c1ccc(C(=O)O)cc1OC | 205
CCCCC1(CCCC)CS(=O)(=O)c2ccc(N(C)C)cc2[C@@H](c2ccc(OCc3cccc(CN(CC(=O)O)CC(=O)O)n3)cc2)[C@H]1O | 153 to 155
CCSc1c(Cl)c(C(=O)O)c(C(O)=NC)c(Cl)c1SCC | 154 to 155
O=Cc1nc2cc(F)ccc2s1 | 105 to 107
O=C(CC1=C(n2nc(-c3c(-c4ccccc4)nn4ccccc34)ccc2=O)CCCC1)N1CCN(C(c2ccccc2)(c2ccccc2)c2ccccc2)CC1 | 250
CCOC(=O)c1nc(C)n(Cc2ccc([N+](=O)[O-])cc2)c1C(=O)OCC | 109
OCCN1CC[C@@H]2[C@H]1CCC[C@@]2(O)c1ccc(Cl)c(Cl)c1 (racemic) | 161

— a melting point compilation (Tetko et al.; mined from patent text by program, amines drawn as free bases though some values may be those of a salt)
